Where two headings read alike, the source gives them in different places.

In general, IC50 refers to the concentration that gives 50% inhibition.

One assay relates to IL-1β. Briefly: LPS-stimulated whole bovine blood assay, MSD cytokine detection. The format is cell-based. To be noted: overstimulation of IL-1β, LPS-stimulated bovine whole blood. The method, then: The effect of multiple cytokines was not easily quantified using single cell types. Therefore, a fresh whole bovine blood assay was developed with LPS as a stimulant (TLR-4 agonist) and with IL-1β and TNF-α as the read-out. Compounds of the invention were evaluated against a positive control for their ability to inhibit LPS-induced IL-1β and TNF-α as an overall evaluation of relative potency and modulation of target pathways (Table 6).
(§1) In order to correlate RNA sequencing data to cytokine changes the whole blood assay was utilized. […] The enhancement result represents an overall stimulation of cytokine levels due to cellular stress or potential toxicity with increasing concentrations of the compound, representing a typical bell shape response curve for immunomodulatory activity.
In the bovine whole blood in vitro screening assay the inhibition of TNFα as induced by stimulation by lipopolysaccharide (LPS) and as measured by half the maximal inhibitory concentration (IC50) is recognized as the primary biomarker of immunomodulation potency upon pretreatment with the compounds of the invention.

The subject of another assay is TNF-α. The description is as above. The format is cell-based. To be noted: LPS-stimulated bovine whole blood; read-out: TNF-α (IC50 μM). The protocol: Therefore, a fresh whole bovine blood assay was developed with LPS as a stimulant (TLR-4 agonist) and with IL-1β and TNF-α as the read-out. Compounds of the invention were evaluated against a positive control for their ability to inhibit LPS-induced IL-1β and TNF-α as an overall evaluation of relative potency and modulation of target pathways (Table 6).
In the bovine whole blood in vitro screening assay the inhibition of TNFα as induced by stimulation by lipopolysaccharide (LPS) and as measured by half the maximal inhibitory concentration (IC50) is recognized as the primary biomarker of immunomodulation potency upon pretreatment with the compounds of the invention. IL-1β is a mediator of the inflammation response and is involved in a number of cellular activities including proliferation, differentiation and apoptosis. IL-1β is also released upon cellular stress or cytotoxicity or upon TLR stimulation. In the bovine whole blood assay the stimulation of IL-1β release upon increasing concentration of test compound is seen as a potential cellular toxicity signal as induced by the test compound. In order to estimate a therapeutic index from the in vitro assay a differential between the TNFα IC50 (immunomodulation potency) versus the perceived cellular toxicity concentration (IL-1β release or overstimulation) was utilized.

Another assay concerns IL-6. The assay is described as above. The format is cell-based. To be noted: LPS-stimulated bovine whole blood, read-out: IL-6 (IC50 μM).
Excerpt: as §1

Assay [1] has as its system BRD pathogens, M. haemolytica and P. multocida. Put plainly: MIC screening panel of BRD pathogens (antibacterial / non-antibacterial). To be noted: read-out: antibacterial / non-antibacterial (MIC for the BRD pathogens).

As for “1-((2S,3R,4S,6R)-2-(((2R,3S,4R,5R,8R,10R,11R,12S,13S,14R)-13-(((2R,4R,5S,6S)-5-(ethoxymethyl)-5-hydroxy-4-methoxy-4,6-dimethyltetrahydro-2H-pyran-2-yl)oxy)-2-ethyl-3,4,10-trihydroxy-3,5,8,10,12,14-hexamethyl-15-oxo-1-oxa-6-azacyclopentadecan-11-yl)oxy)-3-hydroxy-6-methyltetrahydro-2H-pyran-4-yl)-1,3-dimethyl-3-phenylurea [Example C-2]”, the “IL-1β OS of LPS” value in the assay with IL-1β amounted to 100 µM. Moreover, the IC50 with TNF-α came to 200 µM; in the assay on IL-6 it was 100 µM.
In the case of “3-ethyl-1-((2S,3R,4S,6R)-2-(((2R,3S,4R,5R,8R,10R,11R,12S,13S,14R)-2-ethyl-3,4,10-trihydroxy-13-(((2R,4R,5S,6S)-5-hydroxy-4-methoxy-4,6-dimethyl-5-((4-methylpiperazin-1-yl)methyl)tetrahydro-2H-pyran-2-yl)oxy)-3,5,8,10,12,14-hexamethyl-15-oxo-1-oxa-6-azacyclopentadecan-11-yl)oxy)-3-hydroxy-6-methyltetrahydro-2H-pyran-4-yl)-1-methylurea [Example J-9]”, the “IL-1β OS of LPS” value with IL-1β was >500 µM. The 50% inhibitory concentration (IC50) in the assay on TNF-α and in the assay with IL-6 was > 500 µM throughout.
Regarding `CCCNC[C@]1(O)[C@H](C)O[C@@H](O[C@H]2[C@H](C)[C@@H](O[C@@H]3O[C@H](C)C[C@H](NCC(C)C)[C@H]3Oc3ccccc3)[C@](C)(O)C[C@@H](C)CN[C@H](C)[C@@H](O)[C@](C)(O)[C@@H](CC)OC(=O)[C@@H]2C)C[C@@]1(C)OC` [E-155], the “IL-1β OS of LPS” value in the assay on IL-1β came out at 6 µM. The IC50 with TNF-α and in the assay with IL-6 was 8 µM throughout.
For `CCNC[C@]1(O)[C@H](C)O[C@@H](O[C@H]2[C@H](C)[C@@H](O[C@@H]3O[C@H](C)C[C@H](N(C)C(=O)N(C)c4ccccc4)[C@H]3O)[C@](C)(O)C[C@@H](C)CN[C@H](C)[C@@H](O)[C@](C)(O)[C@@H](CC)OC(=O)[C@@H]2C)C[C@@]1(C)OC` [Example H-23, 1-((2S,3R,4S,6R)-2-(((2R,3S,4R,5R,8R,10R,11R,12S,13S,14R)-2-ethyl-13-(((2R,4R,5S,6S)-5-((ethylamino)methyl)-5-hydroxy-4-methoxy-4,6-dimethyltetrahydro-2H-pyran-2-yl)oxy)-3,4,10-trihydroxy-3,5,8,10,12,14-hexamethyl-15-oxo-1-oxa-6-azacyclopentadecan-11-yl)oxy)-3-hydroxy-6-methyltetrahydro-2H-pyran-4-yl)-1,3-dimethyl-3-phenylurea], the “IL-1β OS of LPS” value with IL-1β came out at 100 µM. Moreover, the IC50 in the assay on IL-6 (Bos taurus) was found to be 193 µM.
On to `CC[C@H]1OC(=O)[C@H](C)[C@@H](O[C@H]2C[C@@](C)(OC)[C@](O)(CNCCN3CCOCC3)[C@H](C)O2)[C@H](C)[C@@H](O[C@@H]2O[C@H](C)C[C@H](N(C)C(=O)N(C)c3ccccc3)[C@H]2O)[C@](C)(O)C[C@@H](C)CN[C@H](C)[C@@H](O)[C@]1(C)O` [Example H-42, 1-((2S,3R,4S,6R)-2-(((2R,3S,4R,5R,8R,10R,11R,12S,13S,14R)-2-ethyl-3,4,10-trihydroxy-13-(((2R,4R,5S,6S)-5-hydroxy-4-methoxy-4,6-dimethyl-5-(((2-morpholinoethyl)amino)methyl)tetrahydro-2H-pyran-2-yl)oxy)-3,5,8,10,12,14-hexamethyl-15-oxo-1-oxa-6-azacyclopentadecan-11-yl)oxy)-3-hydroxy-6-methyltetrahydro-2H-pyran-4-yl)-1,3-dimethyl-3-phenylurea], for which the MIC in assay [1] is > 64 µg/mL. In addition, in the assay with IL-1β, the “IL-1β OS of LPS” value amounted to 100 µM. Moreover, the IC50 in the assay with IL-6 (Bos taurus) came to 177 µM.

The values above are taken from patent publication US12295936B2, “Immunomodulating urea azalides” (Zoetis Services LLC, priority 2020, dated 2025).
